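Cells were grown in 96-well plates and exposed to each compound for 48 hours at five concentrations; endpoints were interpolated linearly between bracketing concentrations, or set to the highest concentration if not reached. TGI: concentration producing complete growth inhibition.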
Assays:
Test in all cases: NCI-60 cell line screen, 48 h
HL-60(TB) leukemia = test system: HL-60(TB) leukemia
RXF-631 renal = test system: RXF-631 renal
HT29 colon = test system: HT29 colon
A498 renal = test system: A498 renal
HOP-92 NSCLC = test system: HOP-92 NSCLC
HOP-62 NSCLC = test system: HOP-62 NSCLC
EKVX NSCLC = test system: EKVX NSCLC
ACHN renal = test system: ACHN renal
NCI-H460 lung = test system: NCI-H460 lung
OVCAR-5 ovarian = test system: OVCAR-5 ovarian
UO-31 renal = test system: UO-31 renal
KM12 colon = test system: KM12 colon
U251 CNS = test system: U251 CNS
SR leukemia = test system: SR leukemia
NCI-H23 lung = test system: NCI-H23 lung
DMS 273 small cell lung = test system: DMS 273 small cell lung
MOLT-4 leukemia = test system: MOLT-4 leukemia
A549 NSCLC = test system: A549 NSCLC
UACC-62 melanoma = test system: UACC-62 melanoma
SNB-19 CNS = test system: SNB-19 CNS
OVCAR-8 ovarian = test system: OVCAR-8 ovarian
DMS 114 small cell lung = test system: DMS 114 small cell lung
UACC-257 melanoma = test system: UACC-257 melanoma
SNB-78 CNS = test system: SNB-78 CNS
SK-OV-3 ovarian = test system: SK-OV-3 ovarian
SK-MEL-28 melanoma = test system: SK-MEL-28 melanoma
SF-295 CNS = test system: SF-295 CNS
M19-MEL melanoma = test system: M19-MEL melanoma
RXF 393 renal = test system: RXF 393 renal
NCI-H522 lung = test system: NCI-H522 lung
M14 melanoma = test system: M14 melanoma
CCRF-CEM leukemia = test system: CCRF-CEM leukemia
HCT-116 colon = test system: HCT-116 colon
IGROV1 ovarian = test system: IGROV1 ovarian
TK-10 renal = test system: TK-10 renal
HCT-15 colon = test system: HCT-15 colon
RPMI-8226 leukemia = test system: RPMI-8226 leukemia
LXFL 529 NSCLC = test system: LXFL 529 NSCLC
LOX IMVI melanoma = test system: LOX IMVI melanoma
OVCAR-4 ovarian = test system: OVCAR-4 ovarian
CAKI-1 renal = test system: CAKI-1 renal
SW-620 colon = test system: SW-620 colon
SN12C renal = test system: SN12C renal
786-0 renal = test system: 786-0 renal
DLD-1 colon = test system: DLD-1 colon
HOP-18 NSCLC = test system: HOP-18 NSCLC
OVCAR-3 ovarian = test system: OVCAR-3 ovarian
KM20L2 colon = test system: KM20L2 colon
HCC-2998 colon = test system: HCC-2998 colon
XF 498 CNS = test system: XF 498 CNS
SK-MEL-5 melanoma = test system: SK-MEL-5 melanoma
SNB-75 CNS = test system: SNB-75 CNS
SF-268 CNS = test system: SF-268 CNS
K-562 leukemia = test system: K-562 leukemia
SF-539 CNS = test system: SF-539 CNS
SK-MEL-2 melanoma = test system: SK-MEL-2 melanoma
MALME-3M melanoma = test system: MALME-3M melanoma

## CCN(CC)CSc1nc2ccccc2o1
HL-60(TB) leukemia
  TGI: > 100 µM
RXF-631 renal
  TGI: > 100 µM
HT29 colon
  TGI: > 100 µM
A498 renal
  TGI: > 100 µM
HOP-92 NSCLC
  TGI: > 100 µM
HOP-62 NSCLC
  TGI: > 100 µM
EKVX NSCLC
  TGI: > 100 µM
ACHN renal
  TGI: > 100 µM
NCI-H460 lung
  TGI: > 100 µM
OVCAR-5 ovarian
  TGI: > 100 µM
UO-31 renal
  TGI: > 100 µM
KM12 colon
  TGI: > 100 µM
U251 CNS
  TGI: > 100 µM
SR leukemia
  TGI: > 100 µM
NCI-H23 lung
  TGI: > 100 µM
DMS 273 small cell lung
  TGI: > 100 µM
MOLT-4 leukemia
  TGI: > 100 µM
A549 NSCLC
  TGI: > 100 µM
UACC-62 melanoma
  TGI: > 100 µM
SNB-19 CNS
  TGI: > 100 µM
OVCAR-8 ovarian
  TGI: > 100 µM
DMS 114 small cell lung
  TGI: > 100 µM
UACC-257 melanoma
  TGI: > 100 µM
SNB-78 CNS
  TGI: > 100 µM
SK-OV-3 ovarian
  TGI: > 100 µM
SK-MEL-28 melanoma
  TGI: > 100 µM
SF-295 CNS
  TGI: > 100 µM
M19-MEL melanoma
  TGI: > 100 µM
RXF 393 renal
  TGI: > 100 µM
NCI-H522 lung
  TGI: > 100 µM
M14 melanoma
  TGI: > 100 µM
CCRF-CEM leukemia
  TGI: > 100 µM
HCT-116 colon
  TGI: > 100 µM
IGROV1 ovarian
  TGI: > 100 µM
TK-10 renal
  TGI: > 100 µM

## O=C(/C=C/c1ccc([N+](=O)[O-])o1)N1CCN(Cc2ccccc2)CC1
HL-60(TB) leukemia
  TGI: 18.4 µM
HCT-15 colon
  TGI: 15.9 µM
HT29 colon
  TGI: 31.5 µM
A498 renal
  TGI: 29.2 µM
RPMI-8226 leukemia
  TGI: 32.3 µM
HOP-92 NSCLC
  TGI: 27.8 µM
LXFL 529 NSCLC
  TGI: 20.2 µM
HOP-62 NSCLC
  TGI: 34.6 µM
EKVX NSCLC
  TGI: 38.2 µM
ACHN renal
  TGI: 28.3 µM
NCI-H460 lung
  TGI: 29.8 µM
LOX IMVI melanoma
  TGI: 26.6 µM
OVCAR-4 ovarian
  TGI: 29.7 µM
OVCAR-5 ovarian
  TGI: 31.1 µM
UO-31 renal
  TGI: 31.3 µM
KM12 colon
  TGI: 27.1 µM
CAKI-1 renal
  TGI: 21.7 µM
SW-620 colon
  TGI: 21.6 µM
SN12C renal
  TGI: 21.3 µM
U251 CNS
  TGI: 28.1 µM
SR leukemia
  TGI: 38.7 µM
NCI-H23 lung
  TGI: 18.7 µM
DMS 273 small cell lung
  TGI: 24 µM
MOLT-4 leukemia
  TGI: 38.7 µM
A549 NSCLC
  TGI: 35.2 µM
UACC-62 melanoma
  TGI: 20.6 µM
SNB-19 CNS
  TGI: 30.5 µM
786-0 renal
  TGI: 26.1 µM
OVCAR-8 ovarian
  TGI: 28.4 µM
DMS 114 small cell lung
  TGI: 27.4 µM
UACC-257 melanoma
  TGI: 20.8 µM
SNB-78 CNS
  TGI: 54.5 µM
SK-OV-3 ovarian
  TGI: > 100 µM
SK-MEL-28 melanoma
  TGI: 16.9 µM
SF-295 CNS
  TGI: 29.2 µM
M19-MEL melanoma
  TGI: 21.8 µM
DLD-1 colon
  TGI: 19.7 µM
HOP-18 NSCLC
  TGI: 37.1 µM
OVCAR-3 ovarian
  TGI: 31.7 µM
KM20L2 colon
  TGI: 24.3 µM
RXF 393 renal
  TGI: 24.5 µM
HCC-2998 colon
  TGI: 29.3 µM
XF 498 CNS
  TGI: 30.4 µM
NCI-H522 lung
  TGI: 8.16 µM
M14 melanoma
  TGI: 16.7 µM
CCRF-CEM leukemia
  TGI: 27.4 µM
SK-MEL-5 melanoma
  TGI: 22.4 µM
SNB-75 CNS
  TGI: 30.4 µM
HCT-116 colon
  TGI: 22.7 µM
SF-268 CNS
  TGI: 29.5 µM
IGROV1 ovarian
  TGI: 32.1 µM
K-562 leukemia
  TGI: 26.2 µM
TK-10 renal
  TGI: 37.9 µM
SF-539 CNS
  TGI: 19.4 µM

## O=C(Nc1ccc(Cl)cc1Cl)C(=O)Nn1c(=S)[nH]c2ccccc2c1=O
HL-60(TB) leukemia
  TGI: > 100 µM
RXF-631 renal
  TGI: > 100 µM
HCT-15 colon
  TGI: > 100 µM
RPMI-8226 leukemia
  TGI: > 100 µM
LXFL 529 NSCLC
  TGI: > 100 µM
NCI-H460 lung
  TGI: > 100 µM
UO-31 renal
  TGI: > 100 µM
U251 CNS
  TGI: > 100 µM
SR leukemia
  TGI: > 100 µM
DMS 273 small cell lung
  TGI: > 100 µM
MOLT-4 leukemia
  TGI: > 100 µM
A549 NSCLC
  TGI: > 100 µM
786-0 renal
  TGI: > 100 µM
DMS 114 small cell lung
  TGI: > 100 µM
SNB-78 CNS
  TGI: > 100 µM
SK-MEL-2 melanoma
  TGI: > 100 µM
SK-OV-3 ovarian
  TGI: > 100 µM
MALME-3M melanoma
  TGI: > 100 µM
SK-MEL-28 melanoma
  TGI: > 100 µM
M19-MEL melanoma
  TGI: > 100 µM
HOP-18 NSCLC
  TGI: > 100 µM
OVCAR-3 ovarian
  TGI: > 100 µM
RXF 393 renal
  TGI: > 100 µM
HCC-2998 colon
  TGI: > 100 µM
NCI-H522 lung
  TGI: > 100 µM
M14 melanoma
  TGI: > 100 µM
CCRF-CEM leukemia
  TGI: > 100 µM
HCT-116 colon
  TGI: > 100 µM
SF-268 CNS
  TGI: > 100 µM
K-562 leukemia
  TGI: > 100 µM
